Measurements from patent US10106534B2 (CELGENE QUANTICEL RESEARCH, INC., priority 2014, dated 2018).
pIC50: −log10 of the molar value.

These compounds were tested against JMJD2C (Homo sapiens (Human), UniProt Q9H3R0) (assay: In vitro enzyme inhibition assay for JMJD2C activity (TR-FRET)). Settings: not given.
Type: biochemical
Description: This assay determines the ability of a test compound to inhibit JMJD2C demethylase activity. Baculovirus expressed JMJD2C (GenBank Accession #BC143571, AA 2-372) was purchased from BPS Bioscience (Cat#50105).
The ability of test compounds to inhibit the activity of JMJD2C was determined in 384-well plate format under the following reaction conditions: 0.3 nM JMJD2C, 300 nM H3K9me3-biotin labeled peptide (Anaspec cat #64360), 2 μM alpha-ketoglutaric acid in assay buffer of 50 mM HEPES, pH7.3, 0.005% Brij35, 0.5 mM TCEP, 0.2 mg/ml BSA, 50 μM sodium L-ascorbate, and 2 μM ammonium iron(II) sulfate. Reaction product was determined quantitatively by TR-FRET after the addition of detection reagent Phycolink Streptavidin-allophycocyanin (Prozyme) and Europium-anti-di-methylated histone H3 lysine 9 (H3K9me2) antibody (PerkinElmer) in the presence of 5 mM EDTA in LANCE detection buffer (PerkinElmer) at a final concentration of 50 nM and 1 nM, respectively.
The assay reaction was initiated by the following: 2 μl of the mixture of 900 nM H3K9me3-biotin labeled peptide and 6 μM alpha-ketoglutaric acid with 2 μl of 11-point serial diluted inhibitor in 3% DMSO were added to each well of the plate, followed by the addition of 2 μl of 0.9 nM JMJD2C to initiate the reaction. The reaction mixture was incubated at room temperature for 30 minutes, and terminated by the addition of 6 μl of 5 mM EDTA in LANCE detection buffer containing 100 nM Phycolink Streptavidin-allophycocyanin and 2 nM Europium-anti-H3K9me2 antibody. Plates were read by EnVisionMultilabel Reader in TR-FRET mode (excitation at 320 nm, emission at 615 nm and 665 nm) after 1 hour incubation at room temperature. A ratio was calculated (665/615) for each well and fitted to determine inhibition constant (IC50).

JMJD2C, sequence (Q9H3R0 2-372): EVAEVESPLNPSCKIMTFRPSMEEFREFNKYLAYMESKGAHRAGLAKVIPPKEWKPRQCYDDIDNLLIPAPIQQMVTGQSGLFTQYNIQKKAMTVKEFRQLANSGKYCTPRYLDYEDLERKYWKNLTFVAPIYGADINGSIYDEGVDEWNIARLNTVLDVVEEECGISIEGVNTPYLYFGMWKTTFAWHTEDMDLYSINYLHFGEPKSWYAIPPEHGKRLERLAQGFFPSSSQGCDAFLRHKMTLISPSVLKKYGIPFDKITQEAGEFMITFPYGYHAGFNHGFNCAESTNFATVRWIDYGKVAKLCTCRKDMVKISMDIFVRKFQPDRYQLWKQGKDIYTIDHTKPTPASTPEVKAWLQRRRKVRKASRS

| pIC50 | Structure (SMILES) |
| --- | --- |
| 5.00 to 6.00 | Cc1ccc(Sc2ccc3c(c2)CCC[C@@H]3CNc2cnccc2C(=O)O)cc1 [Example 78, 3-({[(1S)-6-[(4-methylphenyl)sulfanyl]-1,2,3,4-tetrahydronaphthalen-1-yl]methyl}amino)pyridine-4-carboxylic acid] |
| 5.00 to 6.00 | O=C(O)c1ccncc1NC[C@H]1CCCc2cc(Sc3ccc(F)cc3)ccc21 [Example 76, 3-({[(1S)-6-[(4-fluorophenyl)sulfanyl]-1,2,3,4-tetrahydronaphthalen-1-yl]methyl}amino)pyridine-4-carboxylic acid] |
| 5.00 to 6.00 | Cc1ccccc1Oc1ccc2c(c1)CCC[C@@H]2CNc1cnccc1C(=O)O [Example 57, 3-({[(1S)-6-(2-methylphenoxy)-1,2,3,4-tetrahydronaphthalen-1-yl]methyl}amino)pyridine-4-carboxylic acid] |
| 5.00 to 6.00 | Cc1cccc(Sc2ccc3c(c2)CCC[C@@H]3CNc2cnccc2C(=O)O)c1 [Example 68, 3-({[(1S)-6-[(3-methylphenyl)sulfanyl]-1,2,3,4-tetrahydronaphthalen-1-yl]methyl}amino)pyridine-4-carboxylic acid] |
| 5.00 to 6.00 | Cc1ccccc1Sc1ccc2c(c1)CCC[C@@H]2CNc1cnccc1C(=O)O [Example 70, 3-({[(1S)-6-[(2-methylphenyl)sulfanyl]-1,2,3,4-tetrahydronaphthalen-1-yl]methyl}amino)pyridine-4-carboxylic acid] |
| 5.00 to 6.00 | Cc1cccc(S(=O)(=O)c2ccc3c(c2)CCC[C@@H]3CNc2cnccc2C(=O)O)c1 [Example 85, 3-({[(1S)-6-(3-methylbenzenesulfonyl)-1,2,3,4-tetrahydronaphthalen-1-yl]methyl}amino)pyridine-4-carboxylic acid] |
| 5.00 to 6.00 | Cc1cccc(N(C)c2ccc3c(c2)CCC[C@H]3CNc2cnccc2C(=O)O)c1 [Example 143, 3-({[(1R)-6-[methyl(3-methylphenyl)amino]-1,2,3,4-tetrahydronaphthalen-1-yl]methyl}amino)pyridine-4-carboxylic acid] |
| 6.00 to 7.00 | O=C(O)c1ccncc1NC[C@@H]1CCCc2cc(Sc3cccc(F)c3)ccc21 [Example 75, 3-({[(1R)-6-[(3-fluorophenyl)sulfanyl]-1,2,3,4-tetrahydronaphthalen-1-yl]methyl}amino)pyridine-4-carboxylic acid] |
| 5.00 to 6.00 | O=C(O)c1ccncc1NC[C@H]1CCCc2cc(Sc3cccc(F)c3)ccc21 [Example 74, 3-({[(1S)-6-[(3-fluorophenyl)sulfanyl]-1,2,3,4-tetrahydronaphthalen-1-yl]methyl}amino)pyridine-4-carboxylic acid] |

Second part, the compound before the results:

| Structure (SMILES) | pIC50 |
| --- | --- |
| CN(c1ccc2c(c1)CCC[C@H]2CNc1cnccc1C(=O)O)c1ccc2occc2c1 [Example 137, 3-({[(1R)-6-[(1-benzofuran-5-yl)(methyl)amino]-1,2,3,4-tetrahydronaphthalen-1-yl]methyl}amino)pyridine-4-carboxylic acid] | 5.00 to 6.00 |
| O=C(O)c1ccncc1NC[C@@H]1CCCc2cc(N3CCOc4ccccc43)ccc21 [Example 108, 3-({[(1R)-6-(3,4-dihydro-2H-1,4-benzoxazin-4-yl)-1,2,3,4-tetrahydronaphthalen-1-yl]methyl}amino)pyridine-4-carboxylic acid] | 5.00 to 6.00 |
| O=C(O)c1ccncc1NCC1CCOc2cc(N(CC(F)(F)F)c3ccccc3)ccc21 (stereo not shown) [Example 129, 3-[({7-[phenyl(2,2,2-trifluoroethyl)amino]-3,4-dihydro-2H-1-benzopyran-4-yl}methyl)amino]pyridine-4-carboxylic acid] | 5.00 to 6.00 |
| CN(c1ccc(C(F)(F)F)cc1)c1ccc2c(c1)OCC[C@H]2CNc1cnccc1C(=O)O [Example 128, 3-({[(4R)-7-{methyl[4-(trifluoromethyl)phenyl]amino}-3,4-dihydro-2H-1-benzopyran-4-yl]methyl}amino)pyridine-4-carboxylic acid] | 5.00 to 6.00 |
| CN(c1ccc(C(=O)C2CC2)cc1)c1ccc2c(c1)OCC[C@H]2CNc1cnccc1C(=O)O [Example 216, 3-({[(4R)-7-[(4-cyclopropanecarbonylphenyl)(methyl)amino]-3,4-dihydro-2H-1-benzopyran-4-yl]methyl}amino)pyridine-4-carboxylic acid] | 6.00 to 7.00 |
| CN(c1ccc(OC(F)(F)F)cc1)c1ccc2c(c1)CCC[C@H]2CNc1cnccc1C(=O)O [Example 181, 3-({[(1R)-6-{methyl[4-(trifluoromethoxy)phenyl]amino}-1,2,3,4-tetrahydronaphthalen-1-yl]methyl}amino)pyridine-4-carboxylic acid] | 6.00 to 7.00 |
| O=C(O)c1ccncc1NC[C@H]1CCOc2cc(Oc3ccccc3)ccc21 [Example 47, 3-({[(4S)-7-phenoxy-3,4-dihydro-2H-1-benzopyran-4-yl]methyl}amino)pyridine-4-carboxylic acid] | 5.00 to 6.00 |
| COc1ccc2c(c1C)CCC[C@@H]2CNc1cnccc1C(=O)O [Example 98, 3-({[(1S)-6-methoxy-5-methyl-1,2,3,4-tetrahydronaphthalen-1-yl]methyl}amino)pyridine-4-carboxylic acid] | 6.00 to 7.00 |
| CN(c1ccc(N2CC(F)(F)C2)cc1)c1ccc2c(c1)CCC[C@H]2CNc1cnccc1C(=O)O [Example 195, 3-({[(1R)-6-{[4-(3,3-difluoroazetidin-1-yl)phenyl](methyl)amino}-1,2,3,4-tetrahydronaphthalen-1-yl]methyl}amino)pyridine-4-carboxylic acid] | 6.00 to 7.00 |
| CN(c1ccc2c(c1)CCC[C@H]2CNc1cnccc1C(=O)O)C1CCOCC1 [Example 113, 3-({[(1R)-6-[methyl(oxan-4-yl)amino]-1,2,3,4-tetrahydronaphthalen-1-yl]methyl}amino)pyridine-4-carboxylic acid] | 6.00 to 7.00 |
| O=C(O)c1ccncc1NCC1NCCc2ccccc21 (stereo not shown) [Example 149, 3-[(1,2,3,4-tetrahydroisoquinolin-1-ylmethyl)amino]pyridine-4-carboxylic acid] | 6.00 to 7.00 |
| O=C(O)c1ccncc1NC[C@H]1CCCc2cc(OC(F)F)ccc21 [Example 60, 3-({[(1S)-6-(difluoromethoxy)-1,2,3,4-tetrahydronaphthalen-1-yl]methyl}amino)pyridine-4-carboxylic acid] | 5.00 to 6.00 |
| CN(c1ccc(CC2CC2)cc1)c1ccc2c(c1)OCC[C@H]2CNc1cnccc1C(=O)O [Example 215, 3-({[(4R)-7-{[4-(cyclopropylmethyl)phenyl](methyl)amino}-3,4-dihydro-2H-1-benzopyran-4-yl]methyl}amino)pyridine-4-carboxylic acid] | 6.00 to 7.00 |
| O=C(O)c1ccncc1NCC1CCCc2cc(S(=O)(=O)c3cccc(F)c3)ccc21 (stereo not shown) [Example 87, 3-({[6-(3-fluorobenzenesulfonyl)-1,2,3,4-tetrahydronaphthalen-1-yl]methyl}amino)pyridine-4-carboxylic acid] | 6.00 to 7.00 |
| Cc1ccccc1-c1ccc2c(c1)OCC[C@@H]2CNc1cnccc1C(=O)O [Example 100, 3-({[(4S)-7-(2-methylphenyl)-3,4-dihydro-2H-1-benzopyran-4-yl]methyl}amino)pyridine-4-carboxylic acid] | 5.00 to 6.00 |

Same assay, conditions: R-enantiomer vs S-enantiomer

| fold more potent for JMJD2C than the S-enantiomer | Structure (SMILES) |
| --- | --- |
| about 6 fold | O=C(O)c1ccncc1NC[C@@H]1CCOc2cc(-c3ccccc3)ccc21 [Example 84 of U.S. Pat. No. 8,952,151, 3-({[(4R)-7-phenyl-3,4-dihydro-2H-1-benzopyran-4-yl]methyl}amino)pyridine-4-carboxylic acid, reference compound] |
